Data on one molecule can be found in patent EP2408450B1, “ALPHA-(N-SULFONAMIDO)ACETAMIDE COMPOUND AS AN INHIBITOR OF BETA AMYLOID PEPTIDE PRODUCTION” (Bristol-Myers Squibb Company, priority 2009, dated 2010).

The target in experiment [1] is presenilin target site of the γ-secretase complex. Kind of experiment: Presenilin binding assay (radioligand displacement, THP-1 membranes). The conditions noted are these: mean ± SD, n = 8. On the procedure:
Radioligand displacement assays with [^3H] (R)-4-((N-(1-amino-4-methyl-1-oxopentan-2-yl)-4-chlorophenylsulfonamido)methyl)-N-(2-methoxyethyl)benzamide were carried out using a method previously described for [^3H] (2R,3S)-2-isobutyl-N1-((S)-2-oxo-1-(3-phenoxybenzyl)azepan-3-yl)-3-propylsuccinamide (RE987, compound A [Seiffert, D. et al., "Presenilin-1 and -2 are molecular targets for γ-secretase inhibitors", J. Biol. Chem., 275(44):34086-34091 (2000)]). Several experiments were performed to confirm that [^3H] (R)-4-((N-(1-amino-4-methyl-1-oxopentan-2-yl)-4-chlorophenylsulfonamido)methyl)-N-(2-methoxyethyl)benzamide bound to γ-secretase. First, the specific binding of [^3H] […] (R)-4-((N-(1-amino-4-methyl-1-oxopentan-2-yl)-4-chlorophenylsulfonamido)methyl)-N-(2-methoxyethyl)benzamide binding to THP-1 membranes correlated well with γ-secretase potency both as measured using previous radioligand binding assays and inhibition of Aβ formation in cultured cells.
THP-1 cells were grown in Spinner cultures in RPMI 1640 containing L-glutamine (Life Technologies Inc.) and 10 µM β-mercaptoethanol to a cell density of 5 x 10^5/mL. […] Filters were washed three times with 0.3 mL per well of phosphate buffered saline pH 7.0 at 4°C and radioactivity was measured using a Wallac 1450 Microbeta liquid scintillation counter (PerkinElmer, Boston, MA). […]
On the technique in general: Displacement assays read how much labelled ligand stays bound in the presence of the test substance.

For experiment [2], the system named is plasma Aβ40. As to the kind of experiment: Rat plasma Aβ40 assay (4G8-TSD ELISA). The conditions noted are these: for plasma Aβ40, % of baseline Aβ40 values: 2 to 24 hours post dosing.

Molecule `NC(=O)[C@@H](CCC(F)(F)F)N(Cc1ccc(-c2ncon2)cc1F)S(=O)(=O)c1ccc(Cl)cc1` [(2R)-2-[[(4-chlorophenyl)sulfonyl][[2-fluoro-4-(1,2,4-oxadiazol-3-yl)phenyl]methyl]amino]-5,5,5-trifluoropentanamide] yielded an inhibition constant Ki in experiment [1] of 0.48 nM. Moreover, the 50% effective dose (ED50) in experiment [2] (Rattus norvegicus, read-out: ED50 for reduction of plasma Aβ40) was 1 to 10 mg/kg. Besides, in experiment [2] (rat, single dose 1 mg/kg, by 8 hours), the “plasma Aβ40, % of starting values” came to 250%. Moreover, the “plasma Aβ40” value in experiment [2] (rat, single dose 1 mg/kg, by 24 hours) is on record as “returning to baseline values”. Moreover, the “plasma Aβ40, % of baseline Aβ40 values” is “less than 25%” in experiment [2] (rat, single dose 10 mg/kg) and “less than 25%” in experiment [2] (rat, single dose 100 mg/kg). Also, the “plasma Aβ40, % of vehicle control” value in experiment [2] (rat, single dose 30 mg/kg) was found to be 2%.

In general, Ki refers to a measure of affinity in units of concentration, obtained from inhibition or displacement. Read a high Ki as a looser hold on the target. One may read the ED50 as the midpoint of the dose-response relation.
